Laboratory results from patent publication US20260201438A1 (priority 2022, published 2026).
≈ marks a conversion by molar mass, not a printed value.

Legend:
[1] = test system: E. coli ATCC 25922; assay: reference broth microdilution (rBMD); type: cell-based; conditions: Escherichia coli, ATCC25922, read-out: MIC rBMD, E. coli ATCC 25922, isolates from urine cultures; geometric mean, n = 3
[2] = test system: S. aureus ATCC 29213; conditions: CLSI M100-Ed35; cited from earlier work
[3] = test system: E. coli ATCC 25922; conditions: CLSI M100-Ed35; cited from earlier work

Row | SMILES | MIC [1] | MIC CLSI QC Range [2] | MIC CLSI QC Range [3]
1 | Cc1nnc(SCC2=C(C(=O)O)N3C(=O)[C@@H](NC(=O)Cn4cnnn4)[C@H]3SC2)s1 [Cefazolin] | 2 µg/mL (≈ 4.4 µM) | – | –
2 | CO[C@@]1(NC(=O)Cc2cccs2)C(=O)N2C(C(=O)O)=C(COC(N)=O)CS[C@@H]21 [Cefoxitin] | – | 1.0 to 4.0 µg/mL | –
3 | CO/N=C(\C(=O)N[C@@H]1C(=O)N2C(C(=O)O)=C(CSc3nc(=O)c(=O)[nH]n3C)CS[C@H]12)c1csc(N)n1 [Ceftriaxone] | – | 1.0 to 8.0 µg/mL | 0.03 to 0.12 µg/mL
4 | CO/N=C(\C(=O)N[C@@H]1C(=O)N2C(C(=O)O)=C(COC(N)=O)CS[C@H]12)c1ccco1 [Cefuroxime] | – | – | 2.0 to 8.0 µg/mL
5 | C[C@@H](O)[C@H]1C(=O)N2C(C(=O)O)=C(S[C@@H]3CN[C@H](C(=O)N(C)C)C3)[C@H](C)[C@H]12 [Meropenem] | – | 0.03 to 0.12 µg/mL | 0.008 to 0.06 µg/mL
